From the NIST ThermoML archive (doi:10.1021/je200707b)
Numbers after ± are expanded uncertainties.

Key:
[1] = 101.33 kPa, Liquid; for viscosity: Falling or rolling sphere viscometry; for mass density: Vibrating tube method
[2] = refractive index (Na D-line) (dimensionless); conditions: 298.15 K; 101.33 kPa; Liquid; Standard Abbe refractometry

Structure (SMILES) | viscosity ([1]; 293.15 K) | mass density ([1]; 293.15 K) | viscosity ([1]; 298.15 K) | mass density ([1]; 298.15 K) | viscosity ([1]; 303.15 K) | mass density ([1]; 303.15 K) | viscosity ([1]; 308.15 K) | mass density ([1]; 308.15 K) | viscosity ([1]; 313.15 K) | mass density ([1]; 313.15 K) | refractive index [2]
CCCCO [butan-1-ol] | 2.983 ± 0.082 mPa·s | 809.7 ± 0.38 kg/m3 | 2.617 ± 0.072 mPa·s | 805.9 ± 0.38 kg/m3 | 2.306 ± 0.063 mPa·s | 802.05 ± 0.37 kg/m3 | 2.04 ± 0.056 mPa·s | 798.17 ± 0.37 kg/m3 | 1.811 ± 0.05 mPa·s | 794.26 ± 0.37 kg/m3 | 1.3973 ± 0.0011
CC(=O)O.CCCCN [butylammonium acetate] | 771.69 ± 71 mPa·s | 959.61 ± 0.42 kg/m3 | 546.35 ± 44 mPa·s | 956.44 ± 0.42 kg/m3 | 397.17 ± 28 mPa·s | 953.33 ± 0.42 kg/m3 | 294.59 ± 18 mPa·s | 950.15 ± 0.42 kg/m3 | 222.24 ± 12 mPa·s | 946.98 ± 0.42 kg/m3 | 1.4426 ± 0.0011
CCO [ethanol] | 1.241 ± 0.034 mPa·s | 789.54 ± 0.37 kg/m3 | 1.128 ± 0.031 mPa·s | 785.25 ± 0.37 kg/m3 | 1.029 ± 0.028 mPa·s | 780.93 ± 0.37 kg/m3 | 0.92 ± 0.025 mPa·s | 776.57 ± 0.37 kg/m3 | 0.842 ± 0.023 mPa·s | 772.18 ± 0.37 kg/m3 | 1.3594 ± 0.0011
CO [methanol] | 0.588 ± 0.016 mPa·s | 791.28 ± 0.37 kg/m3 | 0.557 ± 0.015 mPa·s | 786.56 ± 0.37 kg/m3 | 0.519 ± 0.014 mPa·s | 781.83 ± 0.37 kg/m3 | 0.49 ± 0.013 mPa·s | 777.07 ± 0.37 kg/m3 | 0.462 ± 0.013 mPa·s | 772.29 ± 0.37 kg/m3 | 1.3265 ± 0.0011
CCCO [propan-1-ol] | 2.229 ± 0.061 mPa·s | 803.55 ± 0.37 kg/m3 | 1.975 ± 0.054 mPa·s | 799.55 ± 0.37 kg/m3 | 1.757 ± 0.048 mPa·s | 795.52 ± 0.37 kg/m3 | 1.568 ± 0.043 mPa·s | 791.44 ± 0.37 kg/m3 | 1.406 ± 0.039 mPa·s | 787.34 ± 0.37 kg/m3 | 1.3834 ± 0.0011
